Measurements as given in PMC10208593 (Journal of molecular structure, 2023).
Entries after “also recorded” stand apart in the source; their conditions may differ. Read-outs that look alike come from different tables or passages of the source.

Tests used:
Mahlavu [1] = experiment: SRB cytotoxicity assay, Mahlavu; assay type: cell-based; conditions: Homo sapiens, read-out: IC50 (μM) ± S.D. Mahlavu
[2] = test system: Huh7, HepG2, Mahlavu and SNU475 cells; experiment: Detection of apoptosis by Hoechst 33258 staining; assay type: cell-based, human; conditions: 48 h, IC100 concentrations, all four HCC lines
HCT116 = experiment: SRB cytotoxicity assay, HCT116; assay type: cell-based; conditions: Homo sapiens, HCT-116, 72 h, read-out: IC50 (μM) ± S.D. HCT116
HepG2 = experiment: SRB cytotoxicity assay, HepG2; assay type: cell-based; conditions: Homo sapiens, HepG2, read-out: IC50 (μM) ± S.D. HepG2
Huh7 [3] = experiment: SRB cytotoxicity assay, Huh7; assay type: cell-based; conditions: Homo sapiens
Huh7 [4] = experiment: Flow cytometry cell cycle analysis, Huh7; assay type: cell-based, human; conditions: propidium iodide; for cell cycle phase arrest, Huh7: 72 h at IC50 concentration; for cell cycle phase arrest, Huh7, higher concentration: 72 h at 10 μM
Mahlavu [5] = experiment: Real-time cell monitoring; assay type: cell-based, human; conditions: RT-CES, increasing concentrations, 72 h, vs DMSO control
MCF-7 = experiment: SRB cytotoxicity assay, MCF-7; assay type: cell-based; conditions: Homo sapiens, MCF7, 72 h, read-out: IC50 (μM) ± S.D. MCF-7
SNU475 = experiment: SRB cytotoxicity assay, SNU475; assay type: cell-based; conditions: Homo sapiens, SNU-475, read-out: IC50 (μM) ± S.D. SNU475
[6] = target: tubulin obtained from bovine brains (Bos taurus, UniProt P81947+Q6B856); experiment: Inhibition of [3H]colchicine binding to tubulin; conditions: for Colchicine binding % inhibition ± SD, 50 μM: 50 μM compound, tubulin 1 μM, [3H]colchicine 5 μM; for inhibition at 50 µM: read-out: Colchicine binding % inhibition ± SD, 50 μM
Mahlavu [7] = experiment: Flow cytometry cell cycle analysis, Mahlavu; assay type: cell-based, human; conditions: propidium iodide; for cell cycle phase arrest, Mahlavu, higher concentration: 72 h at 10 μM; for cell cycle phase arrest, Mahlavu: 72 h at IC50 concentration
six cancer cell lines = experiment: SRB assay, six cancer cell lines taken together; assay type: cell-based; conditions: Homo sapiens, read-out: IC50 range against the six cancer cell lines examined
[8] = Huh-7, 72 h, read-out: IC50 (μM) ± S.D. Huh7
[9] = Huh-7, read-out: IC50 (μM) ± S.D. Huh7 (HCC cell lines)

tubulin obtained from bovine brains, sequence (Q6B856 whole entry): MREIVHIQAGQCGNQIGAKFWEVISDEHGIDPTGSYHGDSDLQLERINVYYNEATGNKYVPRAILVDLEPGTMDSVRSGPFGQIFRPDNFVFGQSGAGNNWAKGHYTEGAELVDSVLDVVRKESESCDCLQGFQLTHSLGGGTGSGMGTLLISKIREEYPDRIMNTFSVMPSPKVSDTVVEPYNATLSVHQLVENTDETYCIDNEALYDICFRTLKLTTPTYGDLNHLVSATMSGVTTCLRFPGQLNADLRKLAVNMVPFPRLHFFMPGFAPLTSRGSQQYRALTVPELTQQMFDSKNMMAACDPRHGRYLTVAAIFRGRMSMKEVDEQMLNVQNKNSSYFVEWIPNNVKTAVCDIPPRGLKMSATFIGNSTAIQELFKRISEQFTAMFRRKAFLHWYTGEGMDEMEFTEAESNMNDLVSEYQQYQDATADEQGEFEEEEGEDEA
tubulin obtained from bovine brains, sequence (P81947 whole entry): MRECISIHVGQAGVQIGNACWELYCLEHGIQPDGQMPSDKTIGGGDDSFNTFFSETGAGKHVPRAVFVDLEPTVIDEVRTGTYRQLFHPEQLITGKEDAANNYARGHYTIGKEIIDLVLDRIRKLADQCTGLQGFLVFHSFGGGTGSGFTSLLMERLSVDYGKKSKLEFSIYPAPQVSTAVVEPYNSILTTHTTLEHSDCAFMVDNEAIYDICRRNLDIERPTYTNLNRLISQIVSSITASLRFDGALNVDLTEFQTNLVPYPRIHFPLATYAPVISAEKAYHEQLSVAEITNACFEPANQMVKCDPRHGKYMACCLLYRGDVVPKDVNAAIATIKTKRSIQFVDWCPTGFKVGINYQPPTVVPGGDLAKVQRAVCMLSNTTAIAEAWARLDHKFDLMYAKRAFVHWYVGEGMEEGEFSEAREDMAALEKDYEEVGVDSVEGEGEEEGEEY

SMILES	IC50 (HCT116)	IC50 (Huh7 [3]; [8])	IC50 (MCF-7)	other results
COc1cc(NC(=O)c2cc(-c3c[nH]c4ccccc34)n[nH]2)cc(OC)c1OC [Compound 10, 3-(1H-Indol-3-yl)-N-(3,4,5-trimethoxyphenyl)-1H-pyrazole-5-carboxamide]	2.5 ± 0.3 µM	1 ± 0.2 µM	2.1 ± 0.1 µM	IC50 (Mahlavu [1]): 2.7 ± 0.4 µM; apoptotic nuclear morphology (Hoechst staining) [2]: visible nuclear blebs or deformed nuclei; IC50 (HepG2): 2.9 ± 0.1 µM; IC50 (Huh7 [3]; [9]): 1 ± 0.2 µM; cell cycle phase arrest, Huh7 (Huh7 [4]): arrest in the G0/G1 phase; real-time cell growth (cell index) inhibition, Mahlavu (Mahlavu [5]): noticeable inhibition in cell growth in 6 μM concentration; IC50 (SNU475): 4.1 ± 2.1 µM; Colchicine binding % inhibition ± SD, 50 μM [6]: Inhibition was observed; inhibition at 50 µM [6]: 26 ± 7%
CC(C)(C)c1ccc(NC(=O)c2cc(-c3c[nH]c4ccccc34)n[nH]2)cc1 [Compound 11, N-(4-(tert-Butyl)phenyl)-3-(1H-indol-3-yl)-1H-pyrazole-5-carboxamide]	1.2 ± 0.5 µM	0.6 ± 0.4 µM	1 ± 0.1 µM	IC50 (Mahlavu [1]): 3.4 ± 0.8 µM; apoptotic nuclear morphology (Hoechst staining) [2]: visible nuclear blebs or deformed nuclei; IC50 (HepG2): 2.7 ± 0.9 µM; IC50 (Huh7 [3]; [9]): 0.6 ± 0.4 µM; cell cycle phase arrest, Huh7, higher concentration (Huh7 [4]): arrest in the S phase; cell cycle phase arrest, Huh7 (Huh7 [4]): did not cause a significant change; cell cycle phase arrest, Mahlavu, higher concentration (Mahlavu [7]): arrest in the S phase; cell cycle phase arrest, Mahlavu (Mahlavu [7]): arrest in the S phase; real-time cell growth (cell index) inhibition, Mahlavu (Mahlavu [5]): dose-dependent growth inhibition; IC50 (SNU475): 4.3 ± 0.9 µM; inhibition at 50 µM [6]: 9.4 ± 2%
CSc1ccc(NC(=O)c2cc(-c3c[nH]c4ccccc34)n[nH]2)cc1 [Compound 12, 3-(1H-Indol-3-yl)-N-(4-(methylthio)phenyl)-1H-pyrazole-5-carboxamide]	9 ± 1.9 µM	6.3 ± 1.6 µM	2 ± 0.2 µM	
COc1cc(CNC(=O)c2cc(-c3c[nH]c4ccccc34)n[nH]2)cc(OC)c1OC [Compound 13, 3-(1H-Indol-3-yl)-N-(3,4,5-trimethoxybenzyl)-1H-pyrazole-5-carboxamide]	31 ± 2.4 µM	17.2 ± 2.1 µM	17.9 ± 1 µM	
O=C(Nc1ccccc1)c1cc(-c2c[nH]c3ccccc23)n[nH]1 [Compound 14, 3-(1H-Indol-3-yl)-N-phenyl-1H-pyrazole-5-carboxamide]	> 50 µM	16.8 ± 3.8 µM	22.2 ± 1.8 µM	
COc1ccc(NC(=O)c2cc(-c3c[nH]c4ccccc34)n[nH]2)cc1 [Compound 15, 3-(1H-Indol-3-yl)-N-(4-methoxyphenyl)-1H-pyrazole-5-carboxamide]	11.9 ± 1 µM	8.6 ± 2.1 µM	5.5 ± 0.5 µM	
COc1cc(NC(=O)c2cc(-c3c[nH]c4ccccc34)n[nH]2)cc(OC)c1 [Compound 16, N-(3,5-Dimethoxyphenyl)-3-(1H-indol-3-yl)-1H-pyrazole-5-carboxamide]	6.2 ± 1 µM	4.5 ± 0.1 µM	2.6 ± 0.5 µM	
COc1ccc(NC(=O)c2cc(-c3c[nH]c4ccccc34)n[nH]2)cc1OC [Compound 17, N-(3,4-Dimethoxyphenyl)-3-(1H-indol-3-yl)-1H-pyrazole-5-carboxamide]	10.1 ± 0.7 µM	2.8 ± 1.2 µM	1.7 ± 0.4 µM	
COc1ccc(OC)c(NC(=O)c2cc(-c3c[nH]c4ccccc34)n[nH]2)c1 [Compound 18, N-(2,5-Dimethoxyphenyl)-3-(1H-indol-3-yl)-1H-pyrazole-5-carboxamide]	1.4 ± 0.5 µM	0.6 ± 0.1 µM	3.6 ± 0.4 µM	IC50 (Mahlavu [1]): 2.9 ± 0.8 µM; apoptotic nuclear morphology (Hoechst staining) [2]: visible nuclear blebs or deformed nuclei; also recorded: induced apoptotic cell death; IC50 (HepG2): 1.3 ± 0.09 µM; IC50 (Huh7 [3]; [9]): 0.6 ± 0.2 µM; IC50 (six cancer cell lines): 0.6 to 3.6 µM; cell cycle phase arrest, Huh7, higher concentration (Huh7 [4]): cell cycle arrest in the G2/M phase; also recorded: cell cycle arrest at the G2/M phase; cell cycle phase arrest, Huh7 (Huh7 [4]): did not cause a significant change; cell cycle phase arrest, Mahlavu, higher concentration (Mahlavu [7]): cell cycle arrest in the G2/M phase; also recorded: cell cycle arrest at the G2/M phase; cell cycle phase arrest, Mahlavu (Mahlavu [7]): arrest in the G2/M phase; IC50 (SNU475): 2.9 ± 1.13 µM; Colchicine binding % inhibition ± SD, 50 μM [6]: Inhibition was observed; inhibition at 50 µM [6]: 23 ± 3%
O=C(c1cc(-c2c[nH]c3ccccc23)n[nH]1)N1CCCCC1 [Compound 19, (3-(1H-Indol-3-yl)-1H-pyrazol-5-yl)(piperidin-1-yl)methanone]	23 ± 3.5 µM	19.1 ± 1.8 µM	21.7 ± 2 µM	
O=C(c1cc(-c2c[nH]c3ccccc23)n[nH]1)N1CCOCC1 [Compound 20, (3-(1H-Indol-3-yl)-1H-pyrazol-5-yl)(morpholino)methanone]	> 50 µM	> 50 µM	> 50 µM	
CCCCNC(=O)c1cc(-c2c[nH]c3ccccc23)n[nH]1 [Compound 21, N-Butyl-3-(1H-indol-3-yl)-1H-pyrazole-5-carboxamide]	23.1 ± 5.1 µM	> 50 µM	26.7 ± 0.5 µM	
O=C(Nc1ccc(Cl)cc1)c1cc(-c2c[nH]c3ccccc23)n[nH]1 [Compound 22, N-(4-Chlorophenyl)-3-(1H-indol-3-yl)-1H-pyrazole-5-carboxamide]	> 50 µM	> 50 µM	29.8 ± 3.1 µM	
O=C(Nc1ccc(Br)cc1)c1cc(-c2c[nH]c3ccccc23)n[nH]1 [Compound 23, N-(4-Bromophenyl)-3-(1H-indol-3-yl)-1H-pyrazole-5-carboxamide]	> 50 µM	> 50 µM	39.3 ± 1 µM	
O=C(NCc1ccncc1)c1cc(-c2c[nH]c3ccccc23)n[nH]1 [Compound 24, 3-(1H-Indol-3-yl)-N-(pyridin-4-ylmethyl)-1H-pyrazole-5-carboxamide]	33.2 ± 1 µM	30.4 ± 1.4 µM	31.2 ± 2.6 µM	
O=C(NCc1cccnc1)c1cc(-c2c[nH]c3ccccc23)n[nH]1 [Compound 25, 3-(1H-Indol-3-yl)-N-(pyridin-3-ylmethyl)-1H-pyrazole-5-carboxamide]	26.8 ± 2.1 µM	29.1 ± 1 µM	36.5 ± 4 µM	
O=C(NCc1ccccn1)c1cc(-c2c[nH]c3ccccc23)n[nH]1 [Compound 26, 3-(1H-Indol-3-yl)-N-(pyridin-2-ylmethyl)-1H-pyrazole-5-carboxamide]	34 ± 1.1 µM	35.4 ± 1.8 µM	> 50 µM	
O=C(NC1CCN(Cc2ccccc2)CC1)c1cc(-c2c[nH]c3ccccc23)n[nH]1 [Compound 27, N-(1-Benzylpiperidin-4-yl)-3-(1H-indol-3-yl)-1H-pyrazole-5-carboxamide]	8.9 ± 0.7 µM	6.8 ± 0.7 µM	8.6 ± 0.2 µM	
O=C(c1cc(-c2c[nH]c3ccccc23)n[nH]1)N1CCN(c2ccc(C(F)(F)F)cc2)CC1 [Compound 28, (3-(1H-Indol-3-yl)-1H-pyrazol-5-yl)(4-(4-(trifluoromethyl)phenyl)piperazin-1yl)methanone]	27.6 ± 2.4 µM	16.2 ± 3.2 µM	16.1 ± 1.7 µM	
O=C(c1cc(-c2c[nH]c3ccccc23)n[nH]1)N1CCN(Cc2ccc(C(F)(F)F)cc2)CC1 [Compound 29, (3-(1H-Indol-3-yl)-1H-pyrazol-5-yl)(4-(4-(trifluoromethyl)benzyl)piperazin-1-yl)methanone]	4.1 ± 2 µM	1.7 ± 1.8 µM	3 ± 0.8 µM	
CNC(=O)c1cc(Oc2ccc(NC(=O)Nc3ccc(Cl)c(C(F)(F)F)c3)cc2)ccn1 [Sorafenib, sorafenib, reference compound]	12 ± 0.6 µM	6.5 ± 0.7 µM	13.8 ± 1.2 µM	IC50 (Mahlavu [1]): 8.3 ± 1 µM; IC50 (HepG2): 4.4 ± 0.8 µM; IC50 (Huh7 [3]; [9]): 6.5 ± 0.7 µM; IC50 (SNU475): 9.6 ± 0.5 µM
